Reference: patent US6316623A, “Ethylenediamine compound libraries” (priority 1998, dated 2001)

The compounds below were run on E. coli imp- (assay: microbe, parasite or virus in culture). Conditions: Escherichia coli, 24 h, read-out: % inhibition of bacterial growth in culture.
Type: cell-based
Description: In this assay, the strain E. coli imp-obtained from Spenser Bensen (Sampson, B. A., Misra, R. & Benson, S. A. (1989), Genetics, 122, 491-501, Identification and characterization of a new gene of Escherichia coli K-12 involved in outer membrane permeability) is used. To initiate the exponential phase of bacterial growth prior to the assay, a sample of bacteria was grown overnight at 37° C. in Luria broth and then used to reinoculate sample wells of 96-well microtiter plates. The assays were carried out in the 96-well microtiter plates in 150 μL volume with approximately 1×10^6 cells per well.
Bacteria in Luria broth (75 μL) was added to the compound mixtures in solution in 75 μL water in the individual well of the microtiter plate. Final concentrations of the compound mixtures were 25 μM, 10 μM and 1 μM. Each concentration of the compound mixtures were assayed in triplicate. The plates were incubated at 37° C. and growth monitored over a 24 hour period by measuring the optical density at 595 nm using a BioRad model 3550 UV microplate reader. The percentage of growth relative to a well containing no compound was determined. Ampicillin and tetracycline antibiotic positive controls were concurrently tested in each screening assay.
Work on CC(C)(C)c1ccc(C(=O)N(CCNC(=O)c2cnccn2)CC2CCCN(C(=O)Cc3ccccc3)C2)cc1 (racemic) [compound 17957] yielded an inhibition at 500 µM of 95.7%. CC(C)(C)c1ccc(C(=O)N(CCNC(N)=O)CC2CCCN(C(=O)CO)C2)cc1 (racemic) [compound 17959] showed an inhibition at 500 µM of 39.5%. Cc1ccc(NC(=O)NCCN(C(=O)C2CC2)C2CCN(C(=O)Cc3ccccc3)C2)cc1 (racemic) [compound 17986] showed an inhibition at 500 µM of 35.2%. For CC(C)(C)c1ccc(C(=O)N(CCNC(=O)c2cnccn2)C2CCN(C(=O)Cc3ccccc3)C2)cc1 (racemic) [compound 17989], the inhibition at 500 µM was 38.5%. In the case of O=C(NCCN(C(=O)CO)C1CCN(C(=O)Cc2ccccc2)C1)c1cnccn1 (racemic) [compound 18005], the inhibition at 500 µM was 61.1%. For CC(C)(C)c1ccc(C(=O)N(CCNC(=O)c2cnccn2)CC2CCN(C(=O)Cc3ccccc3)CC2)cc1 [compound 17925], the inhibition at 500 µM was 93.9%. Compound CC(C)(C)c1ccc(C(=O)N(CCNC(N)=O)CC2CCN(C(=O)CO)CC2)cc1 [compound 17927] has an inhibition at 500 µM of 96.3%. With Cc1ccc(NC(=O)NCCN(CC2CCN(C(=O)CO)CC2)C(=O)c2ccc(N)cc2)cc1 [compound 17946] the inhibition at 500 µM was 98.7%.
